Holding throughout (type): cell-based, Human
In one series the test system is DU145 cells. The series is described as follows: MTT cytotoxicity assay. As to conditions: DU145 cells, MTT. Here is the method:
(§1) The cytotoxic behaviors of MITO-DCA, TPP-DCA, Na-DCA, and TPP-Tris-(OH)3 were evaluated using the MTT assay against PC3, DU145, LNCaP, and MSC cells. Cells (2000 cells/well for PC3, DU145, and MSC cells; 5000 cells/well for LNCaP) were seeded on a 96-well plate in 100 μL of desired medium and incubated for 24 h. The cells were treated with different DCA compounds and TPP-Tris-(OH)3 at varying concentrations and incubated for 72 h at 37° C. The cells were then treated with 20 μL of MTT (5 mg/mL in PBS) for 5 h. The medium was removed, the cells were lysed with 100 μL of DMSO, and the absorbance of the purple tormazan was recorded at 550 nm using a Bio-Tek Synergy HT microplate reader. Each well was performed in triplicate. All experiments were repeated three times. Cytotoxicity was expressed as mean percentage increase relative to the unexposed control±SD. Control values were set at 0% cytotoxicity or 100% cell viability. Cytotoxicity data (where appropriate) was fitted to a sigmoidal curve and a three parameters logistic model used to calculate the IC50, which is the concentration of chemotherapeutics causing 50% inhibition in comparison to untreated controls. The mean IC50 is the concentration of agent that reduces cell growth by 50% under the experimental conditions and is the average from at least three independent measurements that were reproducible and statistically significant. The IC50 values were reported at ±99% confidence intervals. This analysis was performed with GraphPad Prism (San Diego, U.S.A).
On the technique in general: Tetrazolium assays rely on reduction of a dye to a coloured formazan, in cell work by metabolically active cells.

Another series deals with LNCaP cells. The experiment in a line: MTT cytotoxicity assay. As to conditions: LNCaP cells, MTT. Here is the method:
as §1

The test system of series [1] is PC3 cells. The experiment in a line: MTT cytotoxicity assay. Particulars: PC3 cells, MTT. The protocol:
as §1

Another series concerns MSC cells. The series is described as follows: MTT cytotoxicity assay on normal cells. Particulars: 72 h. The protocol: as §1
For series [2], the system named is PC3 cells. The experiment in a line: Intracellular lactate determination. Particulars: concentration not given. An excerpt: Cytosolic metabolism of glucose to pyruvate occurs before its entry into mitochondria for oxidative phosphorylation. However, if not metabolized through oxidative phosphorylation as found in cancer, pyruvate gets converted by lactate dehydrogenase through glycolysis to lactate. Glycolysis in the absence of oxidative phosphorylation in cancer causes rise in lactate concentration. To test the ability of MITO-DCA to switch glucose metabolism from glycolysis to oxidative phosphorylation in cancer cells, intracellular lactate levels in glycolytic PC3 cells were measured and compared the value with those observed in less glycolytic LNCaP and normal MSC cells (FIG. 5A). To understand the importance of mitochondria targeting ligand and to explore the importance of a Tris platform to increase number of DCA molecule per targeting ligand, the parent drug Na-DCA and TPP-DCA were used as controls. Treatment of PC3 cells with 50 μM of MITO-DCA for 6 h reduced the intracellular lactate levels by 58±5%. […] Pronounced lactate concentration differences were observed between […] glycolytic PC3 and healthy MSC cells (FIG. 5A). […] None of the DCA compounds has any effect on the lactate levels in MSC cells (FIG. 5A).
PC3, LNCaP, and MSC cells were seeded at a density of 1×10^6 cells/mL on each well of a 12 well plate and allowed to grow overnight at 37° C. under 5% CO2. Cells were treated with 150 μM Na-DCA, 150 μM TPP-DCA, and 50 μM MITO-DCA for 6 h at 37° C. After 6 h, the media was removed and the cells were homogenized. The lysate was added to the enzyme and substrate working reagent mixture and incubated for 30 min. Lactate concentration was measured using Bio-Tek Synergy HT microplate reader at 450 nm and comparing to a standard curve.

For `O=C(CCCCC[P+](c1ccccc1)(c1ccccc1)c1ccccc1)NC(CO)(CO)CO.[Br-]` [TPP-Tris-(OH)3], the “Toxic effects (cytotoxicity profile)” value in the series on DU145 cells, with LNCaP cells and in the series with PC3 cells [1] was “did not show any toxic effects” each time. Also, the “Toxicity in normal MSC cells” value in the series with MSC cells was “did not show any toxic effects”. Moreover, the “Effect on intracellular lactate levels” value in the series with PC3 cells [2] was “did not show any effect”.

The values are drawn from US10004809B2, “Precise delivery of therapeutic agents to cell mitochondria for anti-cancer therapy” (UNIVERSITY OF GEORGIA RESEARCH FOUNDATION, INC., priority 2013, dated 2018).
